Test results as given in patent US4464354A, “(3,4-c)-Pyrido psoralens, process of preparation, application in cosmetology and therapeutics, and cosmetological and pharmaceutical composition with them” (Institut National de la Sante et de la Recherche Medicale, priority 1982, dated 1984).
“Also recorded” adds a separate entry of the source.

Legend:
normal skin = assay: pigmentogenic properties on normal skin; format: in vivo, human; details: 0.5%
Excerpt: The pigmentogenic properties of products 1a and 1b have been tested on normal skin at a concentration of 0.5%.

[1] = test system: Saccharomyces cerevisiae yeast; assay: induction of forward mutations (resistance to canavanine); format: cell-based
Description: This photobiological activity has in effect been defined by the induction of lethal effects, the induction of "small colony" cytoplasmic mutations (damage in the mitochondrial DNA) and the induction of nuclear mutations (reverse and forward). The experiments were conducted in the customary manner in conformity with the following references: […]

synthesis of DNA = assay: photosensitizer effect on DNA synthesis in human fibroblasts; format: cell-based; details: UVA 365 nm
Excerpt: (§1) (F. Bordin, F. Baccichetti and L. Musajo, Experientia 28, 148 (1972)).
(§2) The cells cultivated in Petri dishes having a minimum Eagle medium with 10% embryonic calf serum were marked by precursors which were specific to the exponential phase of growth. The rates of synthesis were estimated by measuring the incorporation of the radioactive precursors in the acid-precipitable material (see S. Nocentini, Biochim. Biophys., Acta 521, 160 (1978)).

DNA [2] = assay: complexation with DNA by absorption and emission spectroscopy; format: binding
[3] = mutagenicity (general statements)
[4] = test system: V79 chinese hamster cells; assay: antiproliferatory effect: inhibition of colony formation of V79 cells; format: cell-based; details: 5×10^-6 M
Description: The photobiological activity of the two monofunctional componds 1a and 1b have been studied in mammalian cells in vitro in order to determine their antiproliferatory effect.
A diploid strain of V79 chinese hamster cells were used.
The action of the compounds on cell survival (i.e. the antiproliferatory effect) was determined by measuring their power to inhibit the capacity of cells to form colonies. The technique used is that described by C.

mitochondrial DNA = assay: induction of "small colony" cytoplasmic mutations; format: cell-based, Saccharomyces cerevisiae; details: in 10% of the survivors
Description: (§3) This photobiological activity has in effect been defined by the induction of lethal effects, the induction of "small colony" cytoplasmic mutations (damage in the mitochondrial DNA) and the induction of nuclear mutations (reverse and forward). The experiments were conducted in the customary manner in conformity with the following references:
If the induction of cytoplasmic mutations is considered as a function of the survivors, the compounds 1a and 1b which are monofunctional derivatives of psoralen, show in 10% of the survivors a rate of induction of cytoplasmic mutation greater than 50%.

[5] = test system: Saccharomyces cerevisiae yeast; assay: induction of lethal effects in yeast with 365 nm irradiation (UVA); format: cell-based
Description: as §3
Thus, the dose of UVA must be between 2.5 and 5 times weaker in the case of compounds 1a and 1b than in the case of 8-MOP to attain the same survival rate.

[6] = spectroscopic absorption properties; format: physicochemical; details: compared with psoralen
Excerpt: Compounds 1a and 1b have similar spectroscopic properties which differ markedly with respect to those of psoralen.

[7] = test system: haploid strain of Saccharomyces cerevisiae yeast; assay: induction of nuclear mutations: His+ reversions; format: cell-based; details: 5×10^-6 M, same survivor rate
Description: as §3
The induction of nuclear mutations (reversions and "forward" mutations) has been determined according to procedures described in the above-mentioned articles.

[8] = photochemical stability under ultraviolet irradiation; format: physicochemical; details: free in solution, ultraviolet irradiation up to an incident dose of 27 kJ/m2
synthesis of RNA = assay: photosensitizer effect on RNA synthesis in human fibroblasts; format: cell-based; details: UVA 365 nm
Excerpt: as §1, §2

[9] = test system: DNA of cells of the wild type; assay: direct biochemical verification of cross-linking in DNA of cells treated and irradiated at 365 nm; format: cell-based, yeast
Excerpt: Indeed, DNA of cells of the wild type were extracted immediately after treatment with products 1a, 1b at a concentration of 10^-5 M and irradiation with two doses of radiation at 365 nm (30% and 5% survival rate). […] If the DNA contains cross-links it renatures itself and is found in the double chain form separable by gradient density from single chain DNA.

yeast mutant pso2 = assay: sensitivity of yeast mutant pso2 versus wild type to photo-addition
DNA [10] = assay: formation of cross-links in DNA (general statements); format: biochemical; details: from induction of cytoplasmic and nuclear mutations
normal human skin = assay: erythema test on normal human skin (forearm); format: in vivo
Description: The clinical and therapeutic activity of compounds 1a and 1b has been also measured on human skin. 10 mg of compounds 1a and 1b were diluted in 2 g of a purified lanolin commercially available under the name ROC hydrocerine which was made liquid by heating to 60° C. This local preparation was first tested on normal human skin (of the forearm). An amount of 10 micrograms/cm2 of products 1a and 1b was applied to a circular cutaneous surface 3 cm in diameter. The two products were left on the skin for 2 hours to insure a sufficient cutaneous penetration. […] The same experiment was repeated a second time with irradiation of 20 J/cm2 through a glass plate in order to filter out all the ultraviolet B radiation. […] This erythema, slightly apparent, continued for 18 days. […] The […] result of the reflective photoplethysmograph were totally identical for products 1a and 1b. […] The […] only appeared in doses of irradiation where are twice that customarily used in a therapeutic treatment.

DNA [11] = assay: photoaffinity for DNA in vivo; format: cell-based, yeast
DNA [12] = assay: thermal denaturation-renaturation of DNA modified in the presence of UVA; format: biochemical
Excerpt: Experiments of thermal denaturation-renaturation carried out on the DNA Modified by the compound 1a in the presence of UVA (incident dose ranging up to 27 Kj/m2) yielding values of the non-renaturating fraction of 100%.

psoriatic plaque = assay: therapeutic test on psoriatic plaque, products 1a and 1b; format: in vivo, human
Description: 10 mg of compounds 1a and 1b were diluted in 2 g of a purified lanolin commercially available under the name ROC hydrocerine which was made liquid by heating to 60° C. Products 1a and 1b have also been tested in the same excipient on a high inflammatory psoriatic plaque. These two products were applied to surfaces having a 3 cm diameter. On a third surface the excipient alone was applied. […] The products and the lanolin alone were applied 2 hours before irradiation. […] This whitening was practically as fast in the zones treated with products 1a and 1b. The zone treated with lanolin alone remained unchanged.

[13] = 10 micrograms/cm2, UVA 20 J/cm2
[14] = 30 micrograms/cm2, by the tenth treatment
[15] = 30 micrograms/cm2, from the fourth treatment

O=c1oc2cc3occc3cc2c2ccncc12 [Compound 1a, Pyrido (3,4-c) furo (3,2-g) coumarin]
pigmentogenic properties, 1b versus 1a (normal skin): pigmentogenic | pigmentation of normal skin (normal skin; three normal patients, total UVA doses of 140 J/cm2): very slight pigmentation, hardly visible, in only two of the three patients | forward mutations as a function of surviving fractions compared with 3-CPs, 8-MOP and 4,5',8-TMeP [1]: markedly less mutagenic than 3-CPs and the bifunctional compounds 8-MOP and 4,5', 8-TMeP | forward mutations as a function of UVA doses compared with 3-CPs ([1]; 5×10^-6 M versus 3-CPs at 5×10^-5 M): comparable to those obtained with 3-CPs at 5×10^-5 M | inhibition capacity (DNA) compared with 3-CPs (synthesis of DNA): much more than 3-CPs | inhibition capacity (DNA) compared with 8-MOP (synthesis of DNA): slightly more powerful than 8-MOP | complexation with DNA (DNA [2]): considerable complexation | solubility in the DNA relative to mixture of alcohol and water (DNA [2]): at least 10 factor | mutagenicity compared with 3-carbethoxypsoralen (conclusion) [3]: less mutagenic than 3-carbethoxypsoralen | LD10 (dose which leaves 10% survive) ([4]; UVA): 1800 J/cm2 | considerable photosensitivity in V79 cells ([4]; UVA): considerable photosensitivity | relative antiproliferatory effect ([4]; UVA): compared to 8-MOP, a higher antiproliferatory effect; also recorded: comparable to that of bifunctional furocoumarins | diminution of cell survival in absence of radiation ([4]; no radiation): no diminution of cell survival | rate of induction of cytoplasmic mutation (mitochondrial DNA): greater than 50% | photoreactivity compared with 4,5',8-trimethylpsoralen (conclusion) [5]: close to that of 4,5'-8-trimethylpsoralen | induction of lethal effects compared with 8-MOP ([5]; 5×10^-5 M, 365 nm (UVA)): activity close to that of 8-methoxypsoralen | activity on cell survival relative to 8-MOP ([5]; 5×10^-6 M, survival curves): 2.5 times | photodynamic activity (oxygen dependent) on induction of lethal damages ([5]; yeast): do not exert on the yeast photodynamic activity | coefficient of molecular absorption at 365 nm [6]: notably a higher coefficient of molecular absorption at 365 nm | His+ reversions rate compared with 3-CPs [7]: less than that observed after the treatment with 3-CPs | His+ reversions rate compared with 8-MOP and 4,5',8-TMeP [7]: very much less than that observed after treatment with the bifunctional agents 8-MOP and 4,5', 8-TMeP | photochemical stability [8]: good photochemical stability | inhibition capacity (RNA) compared with 3-CPs (synthesis of RNA): much more than 3-CPs | inhibition capacity (RNA) compared with 8-MOP (synthesis of RNA): slightly more powerful than 8-MOP | form of DNA after renaturation (cross-links) ([9]; 10^-5 M, 365 nm, two doses (30% and 5% survival rate)): remains in single chain form after renaturation | functional type (mono/bifunctional) ([9]; pso2 mutant and direct examination of DNA): mono functional type | photoreactivity on yeast strains (yeast mutant pso2): very photoreactive | sensitivity of pso2 mutant compared with wild type (yeast mutant pso2; photo-addition): same sensitivity as the wild type | formation of cross-links in the DNA (conclusion) (DNA [10]): incapable of forming cross-links in the DNA | erythema at 5 J/cm2 (normal human skin; 10 micrograms/cm2, 2 hours before UVA 5 J/cm2): no precocious or delayed erythema was observed | duration of erythema (normal human skin; [13]): 18 days | time of appearance of erythema (normal human skin; [13]): 72 h | erythema at 20 J/cm2 (normal human skin; 10 micrograms/cm2, UVA 20 J/cm2 through glass plate): slight erythema | desquamation or local pain (normal human skin; UVA 20 J/cm2): no desquamation or local pain | systolic pulse of the capillaries at erythematic zones (reflective photoplethysmography) (normal human skin; UVA 20 J/cm2): doubling of the systolic pulse | erythematogenicity (conclusion) (normal human skin; in vivo): not erythmatogenic in conditions of irradiation customarily used in human therapy; also recorded: very mildly erythmatogenic | photoaffinity for DNA in vivo compared with 3-CPs (DNA [11]): makedly much high than that of monofunctional furocoumarin 3-CPs | photoaffinity for DNA in vivo relative to 8-MOP (DNA [11]): about 10 times | photoaffinity in respect to DNA compared with 8-MOP (conclusion) (DNA [11]): markedly greater than that of 8-MOP | induction of biadditions on the DNA (DNA [12]): cannot induce biadditions on the DNA | non-renaturating fraction (DNA [12]; UVA incident dose ranging up to 27 kJ/m2): 100% | antipsoriatic action, third patient (psoriatic plaque; 30 μg/cm2 two hours before UVA): did not have a detectable antipsoriatic action | erythema or secondary effect during treatments (psoriatic plaque; 30 micrograms/cm2): no erythema or secondary effect was observed | hyperpigmentation (psoriatic plaque; 30 micrograms/cm2): hyperpigmentation was found | total UVA dose to complete whitening (psoriatic plaque; [14]): 50 J/cm2 | whitening of treated zones (psoriatic plaque; [14]): complete whitening of the zones treated | decrease of squamae (psoriatic plaque; [15]): slight decrease of the squamae | reduction of infiltration (psoriatic plaque; [15]): tangible reduction of the infiltration | antipsoriatic activity (conclusion) (psoriatic plaque; applied locally): good antipsoriatic activity
